Consider two molecules from patent US5641520A, “Halogen compositions for water treatment” (priority 1995, dated 1997).

Each structure is given as a SMILES string.

The nature of the data set: Water solubility of solid halogenated hydantoins and halogen dissolved in a saturated solution. It counts as physicochemical. The conditions noted are these: Table II; for Saturated Solution, amount of halogen dissolved: saturated solution in water.

On to `CC1(C)C(=O)N(Cl)C(=O)N1Br` [Bromo-chlorodimethylhydantoin, bromochlorodimethylhydantoin], for which the “Saturated Solution, amount of halogen dissolved” value turned out to be 825 mg/L as Cl2. Where the note is “water”, this molecule displayed a Solubility of 0.15%.

`CC1(C)C(=O)N(Br)C(=O)N1Br` [Dibromodimethylhydantion, 1,3-dibromo-5,5-dimethylhydantoin]: the “Saturated Solution, amount of halogen dissolved” value is 542 mg/L as Cl2.
